According to article PMC6968633, “Synthesis, antibacterial and anticancer activity, and docking study of aminoguanidines containing an alkynyl moiety” (Journal of Enzyme Inhibition and Medicinal Chemistry, 2019):
Values after ≈ are worked out from the molar mass of the structure shown.

Key:
[1] = system: Staphylococcus aureus ATCC 43300; assay: Antibacterial MIC, multidrug-resistant clinical isolate; format: cell-based; conditions: Staphylococcus aureus, ATCC43300; multidrug-resistant S. aureus ATCC 43300; read-out: MIC
Protocol: (§1) Test bacteria were grown to mid-log phase in Mueller–Hinton broth (MHB) or Tryptone Soya Broth (TSB) and diluted 1000-fold in the same medium. Bacteria (10^5 CFU/mL) were inoculated into MHB or TSB and dispensed at 0.2 ml/well into a 96-well microtiter plate. As positive controls, gatifloxacin, moxifloxacin, norfloxacin, oxacillin, and penicillin were used. […] Bacterial growth was determined by measuring the absorption at 630 nm using a microplate reader. All experiments were carried out three times.
(§2) The evaluation of antibacterial activity of all compounds (3a–3j and 6a–6k) was performed by a serial dilution method to determine the MIC against a panel of pathogens comprising five Gram-positive strains (S. aureus (CMCC(B) 26003 and CMCC 25923), Streptococcus mutans BNCC 336931, Enterococcus faecalis CMCC 29212, and Bacillus subtilis CMCC 63501), four Gram-negative strains (E. coli (CMCC 25922 and CMCC 44568) and P. aeruginosa (CMCC 27853 and CMCC 10104)), as well as three methicillin-resistant clinical isolates (S. aureus ATCC 43300 and ATCC 33591, P. aeruginosa ATCC BAA-2111). The results are described in Tables 1 and 2. Gatifloxacin, moxifloxacin, norfloxacin, oxacillin, and penicillin were used as positive controls.

[2] = system: Staphylococcus aureus ATCC 33591; assay: as above; format: cell-based; conditions: Staphylococcus aureus, ATCC33591; multidrug-resistant S. aureus ATCC 33591; read-out: MIC
Protocol: as §1, §2

[3] = system: Pseudomonas aeruginosa ATCC BAA-2111; assay: as above; format: cell-based; conditions: ATCCBAA2111, multidrug-resistant P. aeruginosa ATCC BAA-2111
Protocol: as §1, §2

[4] = system: Staphyiococcus aureus CMCC 25923; assay: Antibacterial MIC, serial dilution; format: cell-based, Staphylococcus aureus; conditions: Staphylococcus aureus, CMCC25923; S. aureus CMCC 25923, 24 h, 37 °C; read-out: MIC
Protocol: as §1, §2

[5] = system: Pseudomonas aeruginosa CMCC 27853; assay: Antibacterial MIC, serial dilution; format: cell-based; conditions: Pseudomonas aeruginosa, CMCC27853; P. aeruginosa CMCC 27853, 24 h, 37 °C; read-out: MIC
Protocol: as §1, §2

[6] = system: Bacillus subtilis CMCC 63501; assay: Antibacterial MIC, serial dilution; format: cell-based; conditions: Bacillus subtilis, CMCC63501; B. subtilis CMCC 63501, 24 h, 37 °C; read-out: MIC
Protocol: as §1, §2

[7] = system: Enterococcus faecalis CMCC 29212; assay: Antibacterial MIC, serial dilution; format: cell-based; conditions: Enterococcus faecalis, CMCC29212; E. faecalis CMCC 29212, 24 h, 37 °C; read-out: MIC
Protocol: as §1, §2

[8] = system: Staphylococcus aureus CMCC(B)26003; assay: Antibacterial MIC, serial dilution; format: cell-based; conditions: Staphylococcus aureus; S. aureus CMCC(B)26003, 24 h, 37 °C; read-out: MIC
Protocol: as §1, §2

[9] = system: Pseudomonas aeruginosa CMCC 10104; assay: Antibacterial MIC, serial dilution; format: cell-based; conditions: Pseudomonas aeruginosa, CMCC10104; P. aeruginosa CMCC 10104, 24 h, 37 °C; read-out: MIC
Protocol: as §1, §2

[10] = system: Escherichia coli CMCC 25922; assay: Antibacterial MIC, serial dilution; format: cell-based; conditions: Escherichia coli, CMCC25922; E. coli CMCC 25922, 24 h, 37 °C; read-out: MIC
Protocol: as §1, §2

[11] = system: Streptococcus mutans BNCC 336931; assay: Antibacterial MIC, serial dilution; format: cell-based; conditions: Streptococcus mutans, BNCC336931; S. mutans BNCC 336931, 24 h, 37 °C; read-out: MIC
Protocol: as §1, §2

[12] = system: Escherichia coli CMCC 44568; assay: Antibacterial MIC, serial dilution; format: cell-based; conditions: Escherichia coli, CMCC44568; E. coli CMCC 44568, 24 h, 37 °C; read-out: MIC
Protocol: as §1, §2

[13] = system: L02; assay: Cytotoxicity, CCK-8 assay, normal cell line; format: cell-based; conditions: L02 normal human hepatocytes, 48 h
Protocol: (§3) A lung cancer cell line (A549), gastric cancer cell line (SGC7901) and human hepatocytes (L02) were used to test the anticancer activity and cytotoxicity of the new compounds. 5-Fluorouracil (5-FU) was used as the positive control against cancer cell lines. The A549, SGC7901 and L02 cells were grown in Dulbecco’s modified Eagle’s medium (DMEM) supplemented with 10% foetal bovine serum (FBS) and antibiotics (100 U/mL penicillin-streptomycin). Cells at 80–90% confluence were split by trypsin (0.25% in PBS; pH 7.4), and the medium was changed at 24 h intervals. The cells were cultured at 37 °C in a 5% CO2 incubator. The cells were passaged three times, then approximately 1 × 10^4 cells were seeded into each well of a 96-well plate and allowed to incubate to allow attachment of the cells to the surface. After 24 h, the medium was replaced with DMEM supplemented with 10% FBS containing various concentrations (0.1, 0.3, 1, 3, 10, and 30 μg/mL) of test compounds. Each concentration was tested in triplicate. After 48 h treatment, 20 µL of CCK-8 solution was added to each well and the optical density measured at 450 nm after 3 h using a microplate reader. The IC50 values were defined as the concentrations inhibiting 50% of cell growth.

[14] = system: SGC7901; assay: Cytotoxicity, CCK-8 assay; format: cell-based; conditions: Homo sapiens, SGC-7901, SGC7901 gastric cancer cells, 48 h
Protocol: as §3

[15] = system: A549; assay: Cytotoxicity, CCK-8 assay; format: cell-based; conditions: Homo sapiens, A549 lung cancer cells, 48 h
Protocol: as §3

[16] = system: Methicillin-resistant S. aureus ATCC 33591; assay: Bactericidal time-kill assay; format: cell-based, Staphylococcus aureus; conditions: MRSA; for nature of antibacterial effect in time-kill assay: 1 × MIC and 2 × MIC
Protocol: Methicillin-resistant S. aureus ATCC 33591 grown in MHB was used to determine time-kill kinetics. Bacterial suspensions (10^5 CFU/mL) containing test compounds (norflocaxin, compound 3g) at final concentrations of 1 × MIC and 2 × MIC were incubated at 37 °C with shaking. Aliquots (10 μL) were removed from the cultures after 0, 0.5, 1, 2, 3, 4, 6, 8 and 12 h, serially diluted 1000-fold in nutrient solution, and plated onto sterile Mueller-Hinton agar medium. Plates were then incubated for 24 h at 37 °C, the number of CFU was counted, and the total bacterial log10 CFU/mL was determined.

[17] = system: Escherichia coli CMCC 44568; assay: Bacterial resistance development, serial passaging at sub-MIC; format: cell-based; conditions: E. coli, passaging at MIC/2
Protocol: (§4) To evaluate the propensity for developing bacterial resistance, one of the compounds with high antibacterial activity (3g) was used. The initial MIC values of 3g were determined against bacteria Staphylococcus aureus CMCC 25923 and Escherichia coli CMCC 44568, using norfloxacin and colistin, respectively, as antibiotic controls. Subsequently, serial passaging was initiated by transferring bacterial suspension grown at the sub-MIC of the compound/antibiotics (MIC/2) to a new plate and subjecting it to another assay to determine the (new) MIC. After 22 h incubation, cells grown at the sub-MIC of the test compound/antibiotics were once again transferred and the MIC determined. The process was repeated for 20 or 30 passages for S. aureus and E. coli, respectively. The MIC for 3g, norfloxacin and colistin was plotted as a function of time in days (number of passages) to determine the propensity of bacterial resistance development.
(§5) Bacterial resistance against most antibiotics presents a major problem of current times. Therefore, it is crucial to evaluate the potential emergence of bacterial resistance against these biocides. […] Norfloxacin, an antibiotic generally used to treat the Gram-positive infections, was used as a positive control for S. aureus, whereas colistin, a lipopeptide antibiotic active against Gram-negative bacteria, was used as a positive control for E. coli. These antibacterial agents were repeatedly challenged against bacteria at their sub-MIC values to allow bacteria to develop resistance. Resistance is usually defined as a > 4-fold increase in the original MIC[32].

[18] = system: Staphylococcus aureus CMCC 25923; assay: as above; format: cell-based; conditions: S. aureus, passaging at MIC/2, 20 passages
Protocol: as §4, §5

Row | SMILES | MIC [1] [µg/mL] | MIC [2] [µg/mL] | MIC [3] [µg/mL] | MIC [4] [µg/mL] | MIC [5] [µg/mL] | MIC [6] [µg/mL] | MIC [7] [µg/mL] | MIC [8] [µg/mL] | MIC [9] [µg/mL] | MIC [10] [µg/mL] | MIC [11] [µg/mL] | MIC [12] [µg/mL] | nature of antibacterial effect in time-kill assay [16] | increase in MIC on serial passaging [18] | further results
1 | N=C(N)NN=Cc1ccc(C#Cc2ccc(Cl)cc2)cc1 [Compound 3g, 2-(4-((4-Chlorophenyl)ethynyl)benzylidene)hydrazine-1-carboximidamide] | 1 (≈ 3.37 µM) | 0.5 (≈ 1.68 µM) | 4 (≈ 13.5 µM) | 0.5 (≈ 1.68 µM) | > 128 | 0.25 (≈ 0.842 µM) | 0.5 (≈ 1.68 µM) | 0.5 (≈ 1.68 µM) | 1 (≈ 3.37 µM) | 2 (≈ 6.74 µM) | 0.5 (≈ 1.68 µM) | 2 (≈ 6.74 µM) | rapidly bactericidal | little change | IC50 [13]: 20.9 µg/mL (≈ 70.3 µM); IC50 [14]: 1.01 µg/mL (≈ 3.4 µM); IC50 [15]: 4.42 µg/mL (≈ 14.9 µM); persistence of bactericidal activity ([16]; 2 × MIC): 12 h; reduction of bacterial count ([16]; 2 × MIC, after 2 h, start 5.5 log10 CFU/mL): > 5 log10 CFU/mL; melting point: 232 to 234 °C; increase in MIC on serial passaging [17]: little change
2 | CCn1cc(C(=O)O)c(=O)c2cc(F)c(N3CCNCC3)cc21 [Norfloxacin, reference compound] | 0.5 (≈ 1.57 µM) | 0.25 (≈ 0.783 µM) | 1 (≈ 3.13 µM) | 0.125 (≈ 0.391 µM) | 2 (≈ 6.26 µM) | 2 (≈ 6.26 µM) | 1 (≈ 3.13 µM) | 0.125 (≈ 0.391 µM) | 4 (≈ 12.5 µM) | 0.125 (≈ 0.391 µM) | 16 (≈ 50.1 µM) | 0.125 (≈ 0.391 µM) | bacteriostatic, not bactericidal | approximately 32 fold | 
